According to US20210008142A1, “PREPARATION AND USES OF SPINOSIN-Na FROM ZIZIPHI SPINOSAE SEMEN” (Shanxi University, priority 2019, published 2021):
Converted amounts (≈) assume the structure as drawn. Like-named read-outs stand apart in the source and are kept apart here.

Legend:
[1] = system: Colon cancer cell line HCT116; assay: MTT assay, tumor cell proliferation; format: cell-based; conditions: 48 h; for IC50: HCT-116, MTT
Method: (§1) Colon cancer cell line HCT116, cervical cancer cell line Hela, breast cancer cell MCF-7, liver cancer cell HepG2 and normal colonic epithelial cell line FHC in the logarithmic phase were harvested and respectively made into a suspension. After counted, the suspensions were adjusted to 6000 cells/100 μL, and then 100 μL, of respective suspensions were seeded into a 96-well plate, and cultured at 37° C. and 5% CO2 overnight. After that, the culture medium was discarded, and the wells were respectively added with culture mediums containing different concentrations of spinosin-Na, such that final concentrations of the spinosin-Na were respectively 50, 100, 150, 200 and 250 μg/mL. 5 parallel wells were set for each concentration treatment. The cells were continuously cultured in the incubator for 48 h. After that, the culture medium was discarded, and the cells were washed twice with PBS, added with 20 μL of 5.0 mg/mL MTT and continuously cultured for 4 h. The culture medium was discarded, and respective wells were added with 150 μL of DMSO to dissolve formazan crystals produced by living cells. The plate was shaken on a shaker for 10 min, and then transferred to a microplate reader for the measurement of absorbance at 570 nm.
(§2) The antitumor activity of different concentrations of spinosin (100, 200, 300, 400, 500 μg/mL) was measured by the same method described above.

[2] = system: cervical cancer cell line Hela; assay: MTT assay, tumor cell proliferation; format: cell-based; conditions: 48 h; for IC50: MTT
Method: as §1, §2

[3] = spinosin prepared by the existing methods; cited from earlier work
breast cancer cell MCF-7 = assay: MTT assay, tumor cell proliferation; format: cell-based; conditions: 48 h
Method: as §1, §2

liver cancer cell HepG2 = assay: MTT assay, tumor cell proliferation; format: cell-based; conditions: 48 h
Method: as §1, §2

[4] = system: normal colonic epithelial cell line FHC; assay: MTT assay, normal cell proliferation; format: cell-based; conditions: 50-250 μg/mL, 48 h
Method: as §1, §2

[5] = system: cervical cancer cells Hela; assay: Annexin V/PI flow cytometry apoptosis; format: cell-based; conditions: 48 h
Method: (§3) HCT116 and Hela cells in the logarithmic phase were harvested, digested with 0.25% trypsin, and seeded into a 6-well cell culture plate at a density of 1×10^5 cells per petri dish. The cells were cultured at 37° C. and 5% CO2 in an incubator overnight. After the cell adhesion was observed, the culture medium was replaced, and the dishes were respectively added with different concentrations of spinosin-Na. At the same time, a blank control was set, and each concentration treatment was performed in triplicate. The cells were continuously cultured in the incubator under the same conditions for 48 h. After that, the adherent cells were digested with 0.25% trypsin followed by centrifugation at 1,000 rpm for 5 min. The supernatant was discarded, and the cells were washed twice with PBS. The cells were suspended with 200 μL of a mixture of Annexin V and Binding buffer and reacted at 4° C. in the dark for 30 min. 300 μL of a mixed solution of PI and Binding buffer was added to each sample 5 min before the test. The double-stained cells were detected by flow cytometry to identify normal cells, early apoptotic cells, late apoptotic cells and necrotic cells, determining the apoptosis rate. […]

[6] = system: colon cancer cells HCT116; assay: Annexin V/PI flow cytometry apoptosis; format: cell-based; conditions: HCT116, 48 h
Method: as §3

Water solubility = format: physicochemical

Row | Compound | IC50 [1] [µg/mL] | IC50 [2] [µg/mL] | water solubility [3] | proliferation of tumor cells ([1]; HCT116, 50-250 μg/mL) | IC50 (breast cancer cell MCF-7; MCF7, MTT) [µg/mL] | proliferation of tumor cells (breast cancer cell MCF-7; MCF-7, 50-250 μg/mL) | proliferation of tumor cells ([2]; 50-250 μg/mL) | proliferation of tumor cells (liver cancer cell HepG2; HepG2, 50-250 μg/mL) | IC50 (liver cancer cell HepG2; HepG2, MTT) [µg/mL] | effect on proliferation of normal cells [4] | apoptosis of tumor cells [5] | apoptosis of tumor cells [6] | water solubility (Water solubility)
1 | COc1cc2oc(-c3ccc(O)cc3)cc(=O)c2c(O)c1[C@@H]1O[C@H](CO)[C@@H](O)[C@H](O)[C@H]1O[C@@H]1O[C@H](CO)[C@@H](O)[C@H](O)[C@H]1O [Spinosin, spinosin] | 732.71 ± 18.97 (≈ 1200 µM) | 687.60 ± 2132 (≈ 1130 µM) | poor water-solubility |  |  |  |  |  |  |  |  |  | 
2 | spinosin-Na | 147.20 ± 4.65 | 178.41 ± 6.83 |  | significantly inhibit the proliferation | 291.79 ± 10.49 | significantly inhibit the proliferation | significantly inhibit the proliferation | significantly inhibit the proliferation | 444.08 ± 15.21 | no significant effect | significantly induce the apoptosis | significantly induce the apoptosis | good water solubility
